How the values were obtained:
OPM-2 cells = assay: Navitoclax / A-1210477 combination cell viability, OPM-2 cells; format: cell-based; settings: OPM-2, 48 h
Method: (§1) Figure 6 A-1210477 synergizes with navitoclax to kill hematological and solid tumor cell lines. BxPC-3, EJ-1, H23, and OPM-2 cells were treated with increasing concentrations of navitoclax in the presence or absence of increasing concentrations of A-1210477 for 48 h before assessing cell viability. All data points represent the means of triplicate experiments, with error bars indicating the S.E.M. TEXT PRINTED IN THE PICTURE: A-1210477 + navitoclax: Bliss sum (BxPC-3): 716; Bliss sum (EJ-1): 464; Bliss sum (H23): 76; Bliss sum (OPM-2): 946 DOUBTS OF THE COPYIST ABOUT THIS PICTURE: The Bliss sums apply to the combination of A-1210477 and navitoclax. The picture prints the two names separately (legend heading and axis title), not as one joined label.
(§2) Adherent cell lines were seeded at 50 000 cells per well in 96-well plates and treated for 48 h with compounds diluted in half-log steps starting at 30 μM and ending at 0.001 μM. Multiple myeloma cell lines were seeded at 15 000–20 000 cells per well and treated similarly. Effects on proliferation and viability were determined using CellTiter-Glo reagent from Promega (Madison, WI, USA) according to the manufacturer's instructions. IC50 values were determined by non-linear regression analysis of the concentration response data.

BxPC-3 cells = assay: Navitoclax / A-1210477 combination cell viability, BxPC-3 cells; format: cell-based; settings: BxPC-3, 48 h
Method: as §1, §2

H929 cells = assay: Hallmarks of apoptosis in H929 cells (caspase-3/-7, mitochondrial membrane depolarization, phosphatidylserine); format: cell-based, human; settings: H929, 4 h
Method: Figure 4 Indole-2-carboxylic acids induce the hallmarks of apoptosis in MCL-1-dependent cancer cell line H929. (a) Digitonin-permeabilized H929 cells were treated with 10 μM BH3 peptides for 4 h, and intact H929 cells were incubated with increasing concentrations (0.1–10 μM) of A-1208746 for 4 h before assessing the levels of cytochrome c released into the cytosol. (b) H929 and RS4;11 cells were incubated with increasing concentrations of MCL-1 inhibitors or the BCL-2-selective inhibitor ABT-199 (venetoclax) for 48 h before determining cell viability. Cell killing IC50s are plotted with each value representing the mean of three separate experiments. […]
H929 cells were cultured in RPMI 1640 (Invitrogen Corp., Grand Island, NY, USA) supplemented with 10% fetal bovine serum (Invitrogen), 1% sodium pyruvate, 25 mM HEPES, 4.5 g/l glucose, and 1% penicillin/streptomycin (Sigma) and maintained in a humidified chamber at 37 °C containing 5% CO2. […] Following treatment, the hallmarks of apoptosis (activation of caspase-3/-7, mitochondrial membrane depolarization, and phosphatidylserine externalization) were measured using the IntelliCyt (Albuquerque, NM, USA) MultiCyt 4-Plex Apoptosis Screening Kit according to the manufacturer's instructions and read by flow cytometry using a HTFC screening system (IntelliCyt). […] Data were expressed as the percentage of singlet cells. […]

H23 cells = assay: Navitoclax / A-1210477 combination cell viability, H23 cells; format: cell-based, human; settings: H23, 48 h
Method: as §1, §2

BCL-2–BIM interactions = molecular target: T1, BCL-2–BIM interactions (Homo sapiens, UniProt P10415); assay: Mammalian two-hybrid assay, BCL-2–BIM, HeLa cells; format: cell-based; settings: 24 h, luciferase two-hybrid
T1 construct: expressed in transfected cells; host or cells: HeLa cells stably expressing a GAL4-luciferase reporter
T1 sequence (P10415 whole entry, the tested form may be a part): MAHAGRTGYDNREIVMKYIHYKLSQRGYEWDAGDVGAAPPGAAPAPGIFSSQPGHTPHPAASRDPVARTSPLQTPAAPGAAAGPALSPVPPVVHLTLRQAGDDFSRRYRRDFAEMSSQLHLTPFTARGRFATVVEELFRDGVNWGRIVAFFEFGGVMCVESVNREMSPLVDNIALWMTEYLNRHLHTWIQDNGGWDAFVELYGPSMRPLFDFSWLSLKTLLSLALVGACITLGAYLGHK
Method: (a) H929 cells were treated with increasing concentrations of A-1210477 for 4 h. […] All data represent the mean of triplicate experiments, with error bars indicating the S.D. (b) Quantitative measurement of protein–protein interactions using a luciferase-based mammalian two-hybrid assay. […] All data represent the means of triplicate experiments, with error bars indicating the S.Ds.
HeLa cells stably expressing a GAL4-luciferase reporter were seeded into 10 cm dishes at 5 × 10^5 cells per plate. In all, 24 μg of a plasmid expressing both the ‘bait' and ‘prey' fusion proteins (GAL4DBD-BIM and VP16AD-BCL-2, GAL4DBD-BCL-XL and VP16AD- BCL-XS, or GAL4DBD-MCL-1 and VP16AD-NOXA, respectively) were mixed with 1.5 ml OptiMEM (Invitrogen). Separately, 24 μl Lipofectamine 2000 (Invitrogen) were mixed with 1.5 ml OptiMEM. Both solutions were incubated for 5 min (RT) and then mixed together for 20 min. Three milliliters of the mixture was added to cells in 12 ml culture medium lacking antibiotics, incubated at 37 °C for 24 h, and then transferred to 96-well plates at 20 000 cells per well. Compounds were added in half-log dilutions, starting from 1 μM and ending at 0.0001 μM for 24 h, and luciferase activity was assessed using ONE-Glo reagent (Promega). All data were plotted as the percentage of complex remaining relative to untreated controls.

Bak-/- Bax-/- MEFs = assay: Cell viability, Bak-/- Bax-/- murine embryonic fibroblasts; format: cell-based; settings: 48 h
Method: Supplementary Figure 4. […] Murine embryonic fibroblasts (MEFs) lacking Bak and Bax were treated with increasing concentrations of A-1155905, A-1208746, A-1210477, staurosporine or bortezomib for 48 h before assessing cell viability. Data represent the mean of triplicate experiments and error bars indicate the standard error of the mean.

[1] = parameters: method as in PMID 25679114; settings: cited from earlier work

Cc1nn(C)c(COc2ccc(N3CCN(S(=O)(=O)N(C)C)CC3)cc2)c1-c1cccc2c(CCCOc3cccc4ccccc34)c(C(=O)O)n(CCN3CCOCC3)c12 [A-1210477]
potentiation of navitoclax (OPM-2 cells): substantially shifted the dose–response curve of navitoclax
potentiation of navitoclax (BxPC-3 cells): substantially shifted the dose–response curve of navitoclax
induction of hallmarks of apoptosis (mitochondrial membrane depolarization, caspase-3/-7 activation, phosphatidylserine externalization) (H929 cells): induced the hallmarks of apoptosis
potentiation of navitoclax (H23 cells): substantially shifted the dose–response curve of navitoclax
effect on BCL-2–BIM interactions (BCL-2–BIM interactions): no effect
killing of Bak-/- Bax-/- MEFs (Bak-/- Bax-/- MEFs): do not Kill
human protein binding [1]: > 99%

Source: article PMC4669759 (Cell Death & Disease, 2015)
